# Source: patent publication US6770596B1, “Fused tricyclic compounds, process for their preparation, and herbicidal compositions containing them” (Ishihara Sangyo Kaisha Ltd., priority 2002, dated 2004)
# Assays:
# Type in all cases: in vivo
# [1] = system: redroot pigweed (Amaranthus retroflexus, AMR); assay: Pre-emerge test, redroot pigweed; conditions: 250 g ai/ha, 14 days after application, rating scale 0-100 (0 no damage, 100 complete death)
# Text: (§1) A standard greenhouse herbicide activity screening system was used to evaluate the herbicidal efficacy and crop safety of these test compounds. Seven broadleaf weed species including redroot pigweed (Amaranthus retroflexus, AMR), velvetleaf (Abutilon theophrasti, ABT), sicklepod (Cassia obtusifolia, CAO), ivyleaf morningglory (Ipomoea hederacea, IPH), lambsquarters (Chenopodium album, CHA), common ragweed (Ambrosia artemisiifolia L., AML), and cocklebur (Xanthium strumariunt, XAS) were used as test species. Four grass weed species including green foxtail (Setaria viridis, SEV), barnyardgrass (Echinachloa crus-galli, ECC), johnsongrass (Sorghum halepense, SOH), and large crabgrass (Digitaria sanguinalis, DIS) were also used. In addition, four crop species, field corn (Zea mays L., var. Dekalb 535, CORN), soybean (Glycine max L., var. Pella 86, SOY), upland rice (Oryza sp., var.Tebonnet, RICE), and wheat (Triticum aestivum) were included all plants were grown in 10 cm square plastic pots which were filled with a sandy loam soil mix.
# (§2) For pre-emerge tests, seeds were planted one day prior to application of the test compounds. All test compounds were dissolved in acetone and applied to the test pots in a volume of 187 l/ha. Test materials were applied at rates ranging from 8 g ai/ha to 1000 g ai/ha using a track sprayer equipped with a TJ8001E even flow flat fan spray nozzle. This application simulates a typical commercial field herbicide application.
# (§3) At 14 days after application of the test materials, phytotoxicity ratings were recorded. A rating scale of 0-100 was used for both pre and post emerge tests as previously described in Research Methods in Weed Science, 2nd edition, B, Truelove, Ed., Southern Weed Science Society, Auburn University, Auburn, Ala., 1977. Briefly, “0” corresponds to no damage and “100” corresponds to complete death of all plants in the test unit. This scale was used both to determine efficacy against weed species and damage to crop species. Herbicide activity data for various compounds of this invention, which are shown by compound No. in Tables 1-3, are shown in Tables 5 and 6.
# [2] = system: soybean (Glycine max L., var. Pella 86, SOY); assay: Pre-emerge test, crop damage soybean; conditions: pre-emerge, 250 g ai/ha, 14 days after application, rating scale 0-100 (0 no damage, 100 complete death)
# Text: as §1, §2, §3
# [3] = system: ivyleaf morningglory (Ipomoea hederacea, IPH); assay: Post-emerge test, ivyleaf morningglory; conditions: 250 g ai/ha, 14 days after application, rating scale 0-100 (0 no damage, 100 complete death)
# Text: as §1, §2
# (§4) For post-emerge tests, seeds were planted 8-21 days prior to the test to allow emergence and good foliage development prior to application of the test substances. At the time of the post-emerge application, plants of all species were usually at the 2-3 leaf stage of development. In the postemerge test, a commercial non-ionic surfactant was also included (0.25% v/v) to enhance wetting of the leaf surfaces of target plants.
# as §3
# [4] = system: ivyleaf morningglory (Ipomoea hederacea, IPH); assay: Pre-emerge test, ivyleaf morningglory; conditions: 250 g ai/ha, 14 days after application, rating scale 0-100 (0 no damage, 100 complete death)
# Text: as §1, §2, §3
# [5] = system: barnyardgrass (Echinachloa crus-galli, ECC); assay: Pre-emerge test, barnyardgrass; conditions: 250 g ai/ha, 14 days after application, rating scale 0-100 (0 no damage, 100 complete death)
# Text: as §1, §2, §3
# [6] = system: lambsquarters (Chenopodium album, CHA); assay: Pre-emerge test, lambsquarters; conditions: 250 g ai/ha, 14 days after application, rating scale 0-100 (0 no damage, 100 complete death)
# Text: as §1, §2, §3
# [7] = system: wheat (Triticum aestivum); assay: Post-emerge test, crop damage wheat; conditions: post-emerge, 250 g ai/ha, 14 days after application, rating scale 0-100 (0 no damage, 100 complete death)
# Text: as §1, §2, §4, §3
# [8] = system: sicklepod (Cassia obtusifolia, CAO); assay: Post-emerge test, sicklepod; conditions: 250 g ai/ha, 14 days after application, rating scale 0-100 (0 no damage, 100 complete death)
# Text: as §1, §2, §4, §3
# [9] = system: redroot pigweed (Amaranthus retroflexus, AMR); assay: Post-emerge test, redroot pigweed; conditions: 250 g ai/ha, 14 days after application, rating scale 0-100 (0 no damage, 100 complete death)
# Text: as §1, §2, §4, §3
# [10] = system: wheat (Triticum aestivum); assay: Pre-emerge test, crop damage wheat; conditions: pre-emerge, 250 g ai/ha, 14 days after application, rating scale 0-100 (0 no damage, 100 complete death)
# Text: as §1, §2, §3
# [11] = system: velvetleaf (Abutilon theophrasti, ABT); assay: Post-emerge test, velvetleaf; conditions: 250 g ai/ha, 14 days after application, rating scale 0-100 (0 no damage, 100 complete death)
# Text: as §1, §2, §4, §3
# [12] = system: lambsquarters (Chenopodium album, CHA); assay: Post-emerge test, lambsquarters; conditions: 250 g ai/ha, 14 days after application, rating scale 0-100 (0 no damage, 100 complete death)
# Text: as §1, §2, §4, §3
# [13] = system: common ragweed (Ambrosia artemisiifolia L., AML); assay: Pre-emerge test, common ragweed; conditions: 250 g ai/ha, 14 days after application, rating scale 0-100 (0 no damage, 100 complete death)
# Text: as §1, §2, §3
# [14] = system: large crabgrass (Digitaria sanguinalis, DIS); assay: Post-emerge test, large crabgrass; conditions: 250 g ai/ha, 14 days after application, rating scale 0-100 (0 no damage, 100 complete death)
# Text: as §1, §2, §4, §3
# [15] = system: field corn (Zea mays L., var. Dekalb 535, CORN); assay: Pre-emerge test, crop damage field corn; conditions: pre-emerge, 250 g ai/ha, 14 days after application, rating scale 0-100 (0 no damage, 100 complete death)
# Text: as §1, §2, §3
# [16] = system: johnsongrass (Sorghum halepense, SOH); assay: Post-emerge test, johnsongrass; conditions: 250 g ai/ha, 14 days after application, rating scale 0-100 (0 no damage, 100 complete death)
# Text: as §1, §2, §4, §3
# [17] = system: common ragweed (Ambrosia artemisiifolia L., AML); assay: Post-emerge test, common ragweed; conditions: 250 g ai/ha, 14 days after application, rating scale 0-100 (0 no damage, 100 complete death)
# Text: as §1, §2, §4, §3
# [18] = system: upland rice (Oryza sp., var.Tebonnet, RICE); assay: Post-emerge test, crop damage upland rice; conditions: post-emerge, 250 g ai/ha, 14 days after application, rating scale 0-100 (0 no damage, 100 complete death)
# Text: as §1, §2, §4, §3
# [19] = system: field corn (Zea mays L., var. Dekalb 535, CORN); assay: Post-emerge test, crop damage field corn; conditions: post-emerge, 250 g ai/ha, 14 days after application, rating scale 0-100 (0 no damage, 100 complete death)
# Text: as §1, §2, §4, §3
# [20] = system: cocklebur (Xanthium strumariunt, XAS); assay: Pre-emerge test, cocklebur; conditions: 250 g ai/ha, 14 days after application, rating scale 0-100 (0 no damage, 100 complete death)
# Text: as §1, §2, §3
# [21] = system: green foxtail (Setaria viridis, SEV); assay: Pre-emerge test, green foxtail; conditions: 250 g ai/ha, 14 days after application, rating scale 0-100 (0 no damage, 100 complete death)
# Text: as §1, §2, §3
# [22] = system: cocklebur (Xanthium strumariunt, XAS); assay: Post-emerge test, cocklebur; conditions: 250 g ai/ha, 14 days after application, rating scale 0-100 (0 no damage, 100 complete death)
# Text: as §1, §2, §4, §3
# [23] = system: green foxtail (Setaria viridis, SEV); assay: Post-emerge test, green foxtail; conditions: 250 g ai/ha, 14 days after application, rating scale 0-100 (0 no damage, 100 complete death)
# Text: as §1, §2, §4, §3
# [24] = system: velvetleaf (Abutilon theophrasti, ABT); assay: Pre-emerge test, velvetleaf; conditions: 250 g ai/ha, 14 days after application, rating scale 0-100 (0 no damage, 100 complete death)
# Text: as §1, §2, §3
# [25] = system: sicklepod (Cassia obtusifolia, CAO); assay: Pre-emerge test, sicklepod; conditions: 250 g ai/ha, 14 days after application, rating scale 0-100 (0 no damage, 100 complete death)
# Text: as §1, §2, §3
# [26] = system: large crabgrass (Digitaria sanguinalis, DIS); assay: Pre-emerge test, large crabgrass; conditions: 250 g ai/ha, 14 days after application, rating scale 0-100 (0 no damage, 100 complete death)
# Text: as §1, §2, §3
# [27] = system: johnsongrass (Sorghum halepense, SOH); assay: Pre-emerge test, johnsongrass; conditions: 250 g ai/ha, 14 days after application, rating scale 0-100 (0 no damage, 100 complete death)
# Text: as §1, §2, §3
# [28] = system: soybean (Glycine max L., var. Pella 86, SOY); assay: Post-emerge test, crop damage soybean; conditions: post-emerge, 250 g ai/ha, 14 days after application, rating scale 0-100 (0 no damage, 100 complete death)
# Text: as §1, §2, §4, §3
# [29] = system: upland rice (Oryza sp., var.Tebonnet, RICE); assay: Pre-emerge test, crop damage upland rice; conditions: pre-emerge, 250 g ai/ha, 14 days after application, rating scale 0-100 (0 no damage, 100 complete death)
# Text: as §1, §2, §3
# [30] = system: barnyardgrass (Echinachloa crus-galli, ECC); assay: Post-emerge test, barnyardgrass; conditions: 250 g ai/ha, 14 days after application, rating scale 0-100 (0 no damage, 100 complete death)
# Text: as §1, §2, §4, §3
Structure (SMILES),Pre-emerge Herbicidal Activity AMR (phytotoxicity rating) [1],Pre-emerge crop damage SOY (phytotoxicity rating) [2],Post-emerge Herbicidal Activity IPH (phytotoxicity rating) [3],Pre-emerge Herbicidal Activity IPH (phytotoxicity rating) [4],Pre-emerge Herbicidal Activity ECC (phytotoxicity rating) [5],Pre-emerge Herbicidal Activity CHA (phytotoxicity rating) [6],Post-emerge crop damage WHEAT (phytotoxicity rating) [7],Post-emerge Herbicidal Activity CAO (phytotoxicity rating) [8],Post-emerge Herbicidal Activity AMR (phytotoxicity rating) [9],Pre-emerge crop damage WHEAT (phytotoxicity rating) [10],Post-emerge Herbicidal Activity ABT (phytotoxicity rating) [11],Post-emerge Herbicidal Activity CHA (phytotoxicity rating) [12],Pre-emerge Herbicidal Activity AML (phytotoxicity rating) [13],Post-emerge Herbicidal Activity DIS (phytotoxicity rating) [14],Pre-emerge crop damage CORN (phytotoxicity rating) [15],Post-emerge Herbicidal Activity SOH (phytotoxicity rating) [16],Post-emerge Herbicidal Activity AML (phytotoxicity rating) [17],Post-emerge crop damage RICE (phytotoxicity rating) [18],Post-emerge crop damage CORN (phytotoxicity rating) [19],Pre-emerge Herbicidal Activity XAS (phytotoxicity rating) [20],other results
CC1Oc2cc(F)c(-c3nn(C)c(OC(F)F)c3Cl)c3c2N(C1=O)C(C)C(=O)N3 (mixture of isomers) [1-57],100,50,100,100,100,100,50,100,100,35,100,100,100,10,50,40,80,65,10,95,Pre-emerge Herbicidal Activity SEV (phytotoxicity rating) [21]: 100; Post-emerge Herbicidal Activity XAS (phytotoxicity rating) [22]: 100; Post-emerge Herbicidal Activity SEV (phytotoxicity rating) [23]: 99; Pre-emerge Herbicidal Activity ABT (phytotoxicity rating) [24]: 100; Pre-emerge Herbicidal Activity CAO (phytotoxicity rating) [25]: 100; Pre-emerge Herbicidal Activity DIS (phytotoxicity rating) [26]: 100; Pre-emerge Herbicidal Activity SOH (phytotoxicity rating) [27]: 100; Post-emerge crop damage SOY (phytotoxicity rating) [28]: 100; Pre-emerge crop damage RICE (phytotoxicity rating) [29]: 65; Post-emerge Herbicidal Activity ECC (phytotoxicity rating) [30]: 80
"C[C@@H]1Oc2cc(F)c(-c3nn(C)c(C(F)(F)F)c3Cl)c3c2N(CC(=O)N3)C1=O [1-49, 8-[4-Chloro-1-methyl-5-(trifluoromethyl)-1H-pyrazol-3-yl]-9-fluoro-2-S-methyl-5H-pyrazino[1,2,3-de]-1,4-benzoxazine-3,6(2H, 7H)-dione]",100,50,100,100,100,100,50,100,100,60,100,100,100,99,70,65,80,85,35,85,Pre-emerge Herbicidal Activity SEV (phytotoxicity rating) [21]: 100; Post-emerge Herbicidal Activity XAS (phytotoxicity rating) [22]: 100; Post-emerge Herbicidal Activity SEV (phytotoxicity rating) [23]: 100; Pre-emerge Herbicidal Activity ABT (phytotoxicity rating) [24]: 100; Pre-emerge Herbicidal Activity CAO (phytotoxicity rating) [25]: 100; Pre-emerge Herbicidal Activity DIS (phytotoxicity rating) [26]: 100; Pre-emerge Herbicidal Activity SOH (phytotoxicity rating) [27]: 100; Post-emerge crop damage SOY (phytotoxicity rating) [28]: 80; Pre-emerge crop damage RICE (phytotoxicity rating) [29]: 70; Post-emerge Herbicidal Activity ECC (phytotoxicity rating) [30]: 100
CC1C(=O)Nc2c(-c3nn(C)c(OC(F)F)c3Cl)c(F)cc3c2N1C(=O)C(C)(C)O3 (stereo not drawn) [1-60],100,40,100,100,100,100,30,60,85,50,100,100,80,0,80,0,70,0,5,85,Pre-emerge Herbicidal Activity SEV (phytotoxicity rating) [21]: 100; Post-emerge Herbicidal Activity XAS (phytotoxicity rating) [22]: 85; Post-emerge Herbicidal Activity SEV (phytotoxicity rating) [23]: 95; Pre-emerge Herbicidal Activity ABT (phytotoxicity rating) [24]: 100; Pre-emerge Herbicidal Activity CAO (phytotoxicity rating) [25]: 98; Pre-emerge Herbicidal Activity DIS (phytotoxicity rating) [26]: 100; Pre-emerge Herbicidal Activity SOH (phytotoxicity rating) [27]: 100; Post-emerge crop damage SOY (phytotoxicity rating) [28]: 50; Pre-emerge crop damage RICE (phytotoxicity rating) [29]: 70; Post-emerge Herbicidal Activity ECC (phytotoxicity rating) [30]: 98
